Literature values in patent US9572848B1, “Composition of matter for sexual dysfunction” (Aemes Research L.L.L.P., priority 2014, dated 2017).

Legend:
blood pressure = conditions: meta-analysis
[1] = system: growth hormone (GH) levels; conditions: oral arginine, 9-gram dose; placebo 2.9 (+/−0.7)

**Q.** For `N=C(N)NCCC[C@H](N)C(=O)O` [L-arginine], which “Reduction of DBP, pooled estimate” value (blood pressure) is on record?
**A.** 2.7 mmHg

**Q.** And the “Reduction of SBP, pooled estimate” value (blood pressure)?
**A.** 5.4 mmHg

**Q.** And the “Mean peak GH level” value [1]?
**A.** 6.4 (+/−1.3) μg/L
